Assay results taken from PubChem BioAssay (NCI).
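Following 48 hours of exposure in 96-well plates, responses at five concentrations were used to interpolate endpoints linearly. GI50 = concentration required for 50% inhibition of growth. Definition used: TGI = concentration required for complete inhibition of growth.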

Tests used:
Assay in all cases: DTP human tumour cell line panel, 48 h
MCF7 breast = tested on: MCF7 breast
MALME-3M melanoma = tested on: MALME-3M melanoma
MOLT-4 leukemia = tested on: MOLT-4 leukemia
SK-OV-3 ovarian = tested on: SK-OV-3 ovarian
SF-295 CNS = tested on: SF-295 CNS
RPMI-8226 leukemia = tested on: RPMI-8226 leukemia
786-0 renal = tested on: 786-0 renal
SW-620 colon = tested on: SW-620 colon
OVCAR-3 ovarian = tested on: OVCAR-3 ovarian
T-47D breast = tested on: T-47D breast
SR leukemia = tested on: SR leukemia
PC-3 prostate = tested on: PC-3 prostate
DU-145 prostate = tested on: DU-145 prostate
MDA-MB-435 = tested on: MDA-MB-435
COLO 205 colon = tested on: COLO 205 colon
OVCAR-4 ovarian = tested on: OVCAR-4 ovarian
HL-60(TB) leukemia = tested on: HL-60(TB) leukemia
U251 CNS = tested on: U251 CNS
OVCAR-8 ovarian = tested on: OVCAR-8 ovarian
SNB-19 CNS = tested on: SNB-19 CNS
A498 renal = tested on: A498 renal
NCI-H226 lung = tested on: NCI-H226 lung
HCT-116 colon = tested on: HCT-116 colon
UO-31 renal = tested on: UO-31 renal
SN12C renal = tested on: SN12C renal
OVCAR-5 ovarian = tested on: OVCAR-5 ovarian
SK-MEL-5 melanoma = tested on: SK-MEL-5 melanoma
HCT-15 colon = tested on: HCT-15 colon
SK-MEL-28 melanoma = tested on: SK-MEL-28 melanoma
SF-268 CNS = tested on: SF-268 CNS
HCC-2998 colon = tested on: HCC-2998 colon
SF-539 CNS = tested on: SF-539 CNS
BT-549 breast = tested on: BT-549 breast
HOP-92 NSCLC = tested on: HOP-92 NSCLC
NCI/ADR-RES ovarian = tested on: NCI/ADR-RES ovarian
TK-10 renal = tested on: TK-10 renal
CAKI-1 renal = tested on: CAKI-1 renal
EKVX NSCLC = tested on: EKVX NSCLC
HOP-62 NSCLC = tested on: HOP-62 NSCLC
NCI-H23 lung = tested on: NCI-H23 lung
ACHN renal = tested on: ACHN renal
NCI-H460 lung = tested on: NCI-H460 lung
CCRF-CEM leukemia = tested on: CCRF-CEM leukemia
SNB-75 CNS = tested on: SNB-75 CNS
LOX IMVI melanoma = tested on: LOX IMVI melanoma
HS 578T breast = tested on: HS 578T breast
UACC-62 melanoma = tested on: UACC-62 melanoma
MDA-MB-231 breast = tested on: MDA-MB-231 breast
RXF 393 renal = tested on: RXF 393 renal
KM12 colon = tested on: KM12 colon
K-562 leukemia = tested on: K-562 leukemia
A549 NSCLC = tested on: A549 NSCLC
HT29 colon = tested on: HT29 colon
UACC-257 melanoma = tested on: UACC-257 melanoma
SK-MEL-2 melanoma = tested on: SK-MEL-2 melanoma

SMILES: N#Cc1nc2c(S(=O)(=O)c3ccc(Cl)cc3)c(N)n(CCCN3CCOCC3)c2nc1C#N
- GI50 (MCF7 breast): 3.76 µM
- TGI (MCF7 breast): 16.5 µM
- GI50 (MALME-3M melanoma): 3.55 µM
- TGI (MALME-3M melanoma): 18.1 µM
- GI50 (MOLT-4 leukemia): 2.63 µM
- TGI (MOLT-4 leukemia): 9.64 µM
- GI50 (SK-OV-3 ovarian): 27.1 µM
- TGI (SK-OV-3 ovarian): > 100 µM
- GI50 (SF-295 CNS): 17.6 µM
- TGI (SF-295 CNS): 40.7 µM
- GI50 (RPMI-8226 leukemia): 4.68 µM
- TGI (RPMI-8226 leukemia): 41 µM
- GI50 (786-0 renal): 17.3 µM
- TGI (786-0 renal): 52.8 µM
- GI50 (SW-620 colon): 2.99 µM
- TGI (SW-620 colon): 14.1 µM
- GI50 (OVCAR-3 ovarian): 3.29 µM
- TGI (OVCAR-3 ovarian): 15.3 µM
- GI50 (T-47D breast): 2.95 µM
- TGI (T-47D breast): 16.6 µM
- GI50 (SR leukemia): 3.58 µM
- TGI (SR leukemia): 31 µM
- GI50 (PC-3 prostate): 26.7 µM
- TGI (PC-3 prostate): 95.4 µM
- GI50 (DU-145 prostate): 3.79 µM
- TGI (DU-145 prostate): 19.1 µM
- GI50 (MDA-MB-435): 2.21 µM
- TGI (MDA-MB-435): 5.82 µM
- GI50 (COLO 205 colon): 3.45 µM
- TGI (COLO 205 colon): 13.6 µM
- GI50 (OVCAR-4 ovarian): 4.78 µM
- TGI (OVCAR-4 ovarian): > 100 µM
- GI50 (HL-60(TB) leukemia): 2.14 µM
- TGI (HL-60(TB) leukemia): 6.55 µM
- GI50 (U251 CNS): 10.8 µM
- TGI (U251 CNS): 26.7 µM
- GI50 (OVCAR-8 ovarian): 4.07 µM
- TGI (OVCAR-8 ovarian): > 100 µM
- GI50 (SNB-19 CNS): 28.2 µM
- TGI (SNB-19 CNS): > 100 µM
- GI50 (A498 renal): 2.6 µM
- TGI (A498 renal): 14.6 µM
- GI50 (NCI-H226 lung): 2.87 µM
- TGI (NCI-H226 lung): 13.5 µM
- GI50 (HCT-116 colon): 3.11 µM
- TGI (HCT-116 colon): 13.6 µM
- GI50 (UO-31 renal): 4.58 µM
- TGI (UO-31 renal): > 100 µM
- GI50 (SN12C renal): 10 µM
- TGI (SN12C renal): > 100 µM
- GI50 (OVCAR-5 ovarian): 20.8 µM
- TGI (OVCAR-5 ovarian): 54.9 µM
- GI50 (SK-MEL-5 melanoma): 6.67 µM
- TGI (SK-MEL-5 melanoma): 20 µM
- GI50 (HCT-15 colon): 4.32 µM
- TGI (HCT-15 colon): 27.1 µM
- GI50 (SK-MEL-28 melanoma): 4.11 µM
- TGI (SK-MEL-28 melanoma): 15.7 µM
- GI50 (SF-268 CNS): 5.19 µM
- TGI (SF-268 CNS): 35.4 µM
- GI50 (HCC-2998 colon): 18 µM
- TGI (HCC-2998 colon): 33.7 µM
- GI50 (SF-539 CNS): 2.31 µM
- TGI (SF-539 CNS): 7.9 µM
- GI50 (BT-549 breast): 5.75 µM
- TGI (BT-549 breast): 42 µM
- GI50 (HOP-92 NSCLC): 2.72 µM
- TGI (HOP-92 NSCLC): 30.2 µM
- GI50 (NCI/ADR-RES ovarian): 33.2 µM
- TGI (NCI/ADR-RES ovarian): > 100 µM
- GI50 (TK-10 renal): 10.1 µM
- TGI (TK-10 renal): 23.6 µM
- GI50 (CAKI-1 renal): 2.64 µM
- TGI (CAKI-1 renal): 13.8 µM
- GI50 (EKVX NSCLC): 10.6 µM
- TGI (EKVX NSCLC): 22.7 µM
- GI50 (HOP-62 NSCLC): 15.2 µM
- TGI (HOP-62 NSCLC): 51.3 µM
- GI50 (NCI-H23 lung): 7.41 µM
- TGI (NCI-H23 lung): 42.7 µM
- GI50 (ACHN renal): 3.26 µM
- TGI (ACHN renal): 15.3 µM
- GI50 (NCI-H460 lung): 15.8 µM
- TGI (NCI-H460 lung): 40.9 µM
- GI50 (CCRF-CEM leukemia): 2.19 µM
- TGI (CCRF-CEM leukemia): 6.28 µM
- GI50 (SNB-75 CNS): 11.1 µM
- TGI (SNB-75 CNS): 48.3 µM
- GI50 (LOX IMVI melanoma): 4.76 µM
- TGI (LOX IMVI melanoma): 17.3 µM
- GI50 (HS 578T breast): 1.76 µM
- TGI (HS 578T breast): 5.06 µM
- GI50 (UACC-62 melanoma): 10.8 µM
- TGI (UACC-62 melanoma): 31.1 µM
- GI50 (MDA-MB-231 breast): 3.58 µM
- TGI (MDA-MB-231 breast): 14.4 µM
- GI50 (RXF 393 renal): 1.05 µM
- TGI (RXF 393 renal): 5.21 µM
- GI50 (KM12 colon): 12.3 µM
- TGI (KM12 colon): 34.7 µM
- GI50 (K-562 leukemia): 3 µM
- TGI (K-562 leukemia): 31 µM
- GI50 (A549 NSCLC): 19.5 µM
- TGI (A549 NSCLC): 84.1 µM
- GI50 (HT29 colon): 5.96 µM
- TGI (HT29 colon): > 100 µM
- GI50 (UACC-257 melanoma): 5.91 µM
- TGI (UACC-257 melanoma): 22.7 µM
- GI50 (SK-MEL-2 melanoma): 6.77 µM
- TGI (SK-MEL-2 melanoma): 24.5 µM
